ChEMBL document CHEMBL1149774, “Synthesis of N-(5,7-diamino-3-phenyl-quinoxalin-2-yl)-3,4,5-substituted anilines and N-[4[(5,7-diamino-3-phenylquinoxalin-2-yl)amino]benzoyl]-l-glutamic acid diethyl ester: evaluation of in vitro anti-cancer and anti-folate activities” (Eur J Med Chem, 2008)

Columns and labels:
Assay type in all cases: functional
[1] = tested on: HOP-62; assay: Growth inhibition of human HOP62 cells after 48 hrs by SRB staining method; settings: HOP-62, 48 h
[2] = tested on: SK-OV-3; assay: Growth inhibition of human SKOV3 cells after 48 hrs by SRB staining method; settings: SK-OV-3, 48 h
[3] = tested on: HCT-116; assay: Growth inhibition of human HCT116 cells after 48 hrs by SRB staining method; settings: HCT-116, 48 h
[4] = tested on: NCI-H226; assay: Growth inhibition of human NCI-H226 cells after 48 hrs by SRB staining method; settings: NCI-H226, 48 h
[5] = tested on: OVCAR-8; assay: Growth inhibition of human OVCAR8 cells after 48 hrs by SRB staining method; settings: OVCAR-8, 48 h
[6] = tested on: MDA-MB-435; assay: Growth inhibition of human MDA-MB-435 cells after 48 hrs by SRB staining method; settings: MDA-MB-435, 48 h
[7] = tested on: NCI-H522; assay: Growth inhibition of human NCI-H522 cells after 48 hrs by SRB staining method; settings: NCI-H522, 48 h
[8] = tested on: UACC-257; assay: Growth inhibition of human UACC257 cells after 48 hrs by SRB staining method; settings: UACC-257, 48 h
[9] = tested on: UACC-62; assay: Growth inhibition of human UACC62 cells after 48 hrs by SRB staining method; settings: UACC-62, 48 h
[10] = tested on: SK-MEL-5; assay: Growth inhibition of human SK-MEL-5 cells after 48 hrs by SRB staining method; settings: SK-MEL-5, 48 h
[11] = tested on: HCT-15; assay: Growth inhibition of human HCT15 cells after 48 hrs by SRB staining method; settings: HCT-15, 48 h
[12] = tested on: DU-145; assay: Growth inhibition of human DU145 cells after 48 hrs by SRB staining method; settings: DU-145, 48 h
[13] = tested on: MCF7; assay: Growth inhibition of human MCF7 cells after 48 hrs by SRB staining method; settings: MCF7, 48 h
[14] = tested on: U-251; assay: Growth inhibition of human U251 cells after 48 hrs by SRB staining method; settings: U-251, 48 h
[15] = tested on: NCI-H460; assay: Growth inhibition of human NCI-H460 cells after 48 hrs by SRB staining method; settings: NCI-H460, 48 h
[16] = tested on: OVCAR-3; assay: Growth inhibition of human OVCAR-3 cells after 48 hrs by SRB staining method; settings: OVCAR-3, 48 h
[17] = tested on: RXF 393; assay: Growth inhibition of human RXF393 cells after 48 hrs by SRB staining method; settings: RXF 393, 48 h
[18] = tested on: NCI-H23; assay: Growth inhibition of human NCI-H23 cells after 48 hrs by SRB staining method; settings: NCI-H23, 48 h
[19] = tested on: OVCAR-4; assay: Growth inhibition of human OVCAR4 cells after 48 hrs by SRB staining method; settings: OVCAR-4, 48 h
[20] = tested on: EKVX; assay: Growth inhibition of human EKVX cells after 48 hrs by SRB staining method
[21] = tested on: NCI/ADR-RES; assay: Growth inhibition of human NCI/ADR-RES cells after 48 hrs by SRB staining method
[22] = tested on: HL-60; assay: Growth inhibition of human HL60 cells after 48 hrs by SRB staining method; settings: HL-60, 48 h
[23] = tested on: OVCAR-5; assay: Growth inhibition of human OVCAR5 cells after 48 hrs by SRB staining method; settings: OVCAR-5, 48 h
[24] = tested on: M14; assay: Growth inhibition of human M14 cells after 48 hrs by SRB staining method; settings: M14, 48 h
[25] = tested on: 786-0; assay: Growth inhibition of human 786-0 cells after 48 hrs by SRB staining method; settings: 786-0, 48 h
[26] = tested on: SF-295; assay: Growth inhibition of human SF295 cells after 48 hrs by SRB staining method; settings: SF-295, 48 h
[27] = tested on: SF-268; assay: Growth inhibition of human SF268 cells after 48 hrs by SRB staining method; settings: SF-268, 48 h
[28] = tested on: LOX IMVI; assay: Growth inhibition of human LOX IMVI cells after 48 hrs by SRB staining method
[29] = tested on: KM12; assay: Growth inhibition of human KM12 cells after 48 hrs by SRB staining method; settings: KM12, 48 h
[30] = tested on: NCI-H322M; assay: Growth inhibition of human NCI-H322M cells after 48 hrs by SRB staining method
[31] = tested on: TK-10; assay: Growth inhibition of human TK10 cells after 48 hrs by SRB staining method; settings: TK-10, 48 h
[32] = read-out: pLC50 (the source's name) (converted)

CCOC(=O)CCC(NC(=O)c1ccc(Nc2nc3cc(N)cc(N)c3nc2-c2ccccc2)cc1)C(=O)OCC (configuration not stated) was tested, and the GI50 [1] was 19.5 µM, the LC50 [1] was 81.3 µM and the TGI ([1]; read-out: pTGI (converted)) was 39.8 µM. The GI50 [2] was 21.9 µM, the CC50 [2, 32] was greater than 100 µM and the TGI ([2]; read-out: pTGI (converted)) was 47.9 µM. For the same compound, the GI50 [3] was 15.1 µM, the LC50 [3] was greater than 100 µM and the TGI ([3]; read-out: pTGI (converted)) was 51.3 µM. It also gave a GI50 [4] of 26.9 µM, an LC50 [4] greater than 100 µM and a TGI ([4]; read-out: pTGI (converted)) of 55 µM. The GI50 [5] was 33.9 µM, the CC50 [5, 32] was greater than 100 µM and the TGI ([5]; read-out: pTGI (converted)) was greater than 100 µM. The GI50 [6] was 12 µM, the CC50 [6, 32] was greater than 100 µM and the TGI ([6]; read-out: pTGI (converted)) was 36.3 µM. The GI50 [7] was 27.5 µM, the LC50 [7] was greater than 100 µM and the TGI ([7]; read-out: pTGI (converted)) was greater than 100 µM. The GI50 [8] was 2 µM, the LC50 [8] was greater than 100 µM and the TGI ([8]; read-out: pTGI (converted)) was 4.9 µM. The GI50 [9] was 3.55 µM, the LC50 [9] was 64.6 µM and the TGI ([9]; read-out: pTGI (converted)) was 14.5 µM. It also gave a GI50 [10] of 6.61 µM, an LC50 [10] greater than 100 µM and a TGI ([10]; read-out: pTGI (converted)) of 31.6 µM. It also gave a GI50 [11] of 23.4 µM, an LC50 [11] greater than 100 µM and a TGI ([11]; read-out: pTGI (converted)) greater than 100 µM. The GI50 [12] was 44.7 µM, the CC50 [12, 32] was greater than 100 µM and the TGI ([12]; read-out: pTGI (converted)) was greater than 100 µM. It also gave a GI50 [13] of 29.5 µM, a CC50 [13, 32] greater than 100 µM and a TGI ([13]; read-out: pTGI (converted)) greater than 100 µM. For the same compound, the GI50 [14] was 20 µM, the LC50 (50% lethal concentration) [14] was 95.5 µM and the TGI ([14]; read-out: pTGI (converted)) was 43.7 µM. The GI50 [15] was 8.51 µM, the LC50 (concentration killing 50% of cells) [15] was greater than 100 µM and the TGI ([15]; read-out: pTGI (converted)) was 47.9 µM. For the same compound, the GI50 [16] was 8.51 µM, the LC50 [16] was greater than 100 µM and the TGI ([16]; read-out: pTGI (converted)) was 31.6 µM. For the same compound, the GI50 [17] was 24.5 µM, the TGI ([17]; read-out: pTGI (converted)) was 85.1 µM and the GI50 [18] was 18.6 µM. It also gave an LC50 [18] greater than 100 µM, a TGI ([18]; read-out: pTGI (converted)) of 55 µM and a GI50 [19] of 26.9 µM. It also gave an LC50 [19] greater than 100 µM, a TGI ([19]; read-out: pTGI (converted)) greater than 100 µM and a GI50 [20] of 28.8 µM. For the same compound, the CC50 [20, 32] was greater than 100 µM, the TGI ([20]; read-out: pTGI (converted)) was greater than 100 µM and the GI50 [21] was 19.5 µM. The CC50 [21, 32] was greater than 100 µM, the TGI ([21]; read-out: pTGI (converted)) was 63.1 µM and the GI50 [22] was 9.55 µM. For the same compound, the CC50 [22, 32] was greater than 100 µM, the TGI ([22]; read-out: pTGI (converted)) was 51.3 µM and the GI50 [23] was 34.7 µM. It also gave an LC50 [23] greater than 100 µM, a TGI ([23]; read-out: pTGI (converted)) of 87.1 µM and a GI50 [24] of 2.51 µM. The LC50 [24] was 75.9 µM, the TGI ([24]; read-out: pTGI (converted)) was 5.89 µM and the GI50 [25] was 17.8 µM. For the same compound, the CC50 [25, 32] was 77.6 µM, the TGI ([25]; read-out: pTGI (converted)) was 37.2 µM and the GI50 [26] was 17.8 µM. It also gave an LC50 [26] greater than 100 µM, a TGI ([26]; read-out: pTGI (converted)) of 43.7 µM and a GI50 [27] of 23.4 µM. It also gave a CC50 [27, 32] greater than 100 µM, a TGI ([27]; read-out: pTGI (converted)) greater than 100 µM and a GI50 [28] of 8.51 µM. For the same compound, the LC50 [28] was greater than 100 µM, the TGI ([28]; read-out: pTGI (converted)) was greater than 100 µM and the GI50 [29] was 28.2 µM. The LC50 [29] was greater than 100 µM, the TGI ([29]; read-out: pTGI (converted)) was greater than 100 µM and the GI50 [30] was 41.7 µM. For the same compound, the LC50 [30] was greater than 100 µM, the TGI ([30]; read-out: pTGI (converted)) was greater than 100 µM and the GI50 [31] was 33.1 µM. The CC50 [31, 32] was greater than 100 µM and the TGI ([31]; read-out: pTGI (converted)) was 75.9 µM.
